In patent US11780826B2 (Amgen Inc., priority 2017, dated 2023) one finds AC1.4 data, which are given here for 27 molecules.

The assay relates to Bovine cardiac myofibrils. Description: In vitro model of dose-dependent myofibril ATPase modulation (AC1.4, pyruvate kinase/lactate dehydrogenase-coupled ATPase assay at pCa25). The assay is classed as biochemical. As to conditions: concentration at which ATPase activity was 1.4-fold higher than the bottom of the dose curve, mean of a minimum of two independent tests. An outline of the steps: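 We measure calcium-buffered ATPase activity of detergent-skinned bovine cardiac myofibrils at pH 6.80 and 22° C with 1 mM ATP, using a PK/LDH-coupled NADH readout at 340 nm. Values come from four-parameter dose-response fits, averaged over at least two independent runs.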
Take `CC1(O)CN(S(=O)(=O)c2cccc(C(=O)N3CCC[C@@H]3C(=O)NCc3ccc(C(F)(F)F)cc3F)c2)C1` [Example 368, N-(2-fluoro-4-(trifluoromethyl)benzyl)-1-(3-((3-hydroxy-3-methyl-1-azetidinyl)sulfonyl)benzoyl)-D-prolinamide]: the AC1.4 is 1.2 µM.
The figure for `C[C@H](C(=O)NCc1ccnc(C(F)(F)F)c1)N(C)C(=O)c1cccc(S(=O)(=O)N2CC(C#N)C2)c1` [Example 722, 3-((3-cyano-1-azetidinyl)sulfonyl)-N-methyl-N-((1R)-1-methyl-2-oxo-2-(((2-(trifluoromethyl)-4-pyridinyl)methyl)amino)ethyl)benzamide] is 6.3585 µM.
The figure for `O=C(NCc1ccc(C(F)(F)F)cc1)[C@H]1CCCN1C(=O)[C@H]1CCCN(S(=O)(=O)N2CC3(C2)CC(O)(C(F)(F)F)C3)C1` [Example 743, 1-(((3S)-1-((6-hydroxy-6-(trifluoromethyl)-2-azaspiro[3.3]hept-2-yl)sulfonyl)-3-piperidinyl)carbonyl)-N-(4-(trifluoromethyl)benzyl)-D-prolinamide] is 7.2015 µM; for `CCNc1ccc(C)cc1C(=O)N1CCC[C@@H]1C(=O)N[C@@H](c1ccc(C(F)(F)F)cc1F)C1CC1` [Example 108, N-((R)-cyclopropyl(2-fluoro-4-(trifluoromethyl)phenyl)methyl)-1-(2-(ethylamino)-5-methylbenzoyl)-D-prolinamide] it is 0.1689 µM.
`CS(=O)(=O)N1CC(F)(c2cccc(C(=O)N3CCC[C@@H]3C(=O)N[C@@H](c3ccc(C(F)(F)F)cc3F)C3CC3)c2)C1` [Example 286, N-((R)-cyclopropyl(2-fluoro-4-(trifluoromethyl)phenyl)methyl)-1-(3-(3-fluoro-1-(methylsulfonyl)-3-azetidinyl)benzoyl)-D-prolinamide] showed an AC1.4 of 0.7437 µM.
The figure for `N#CC1CN(S(=O)(=O)N2CCC[C@H](C(=O)N3CCC[C@@H]3C(=O)NCc3ccc(F)c(Cl)c3)C2)C1` [Example 272, N-(3-chloro-4-fluorobenzyl)-1-(((3S)-1-((3-cyano-1-azetidinyl)sulfonyl)-3-piperidinyl)carbonyl)-D-prolinamide] is 0.6904 µM; for `CS(=O)(=O)c1ccc(N)c(C(=O)N2CCC[C@@H]2C(=O)N[C@@H](c2ccc(C(F)(F)F)cc2F)C2CC2)c1` [Example 345, 1-(2-amino-5-(methylsulfonyl)benzoyl)-N-((R)-cyclopropyl(2-fluoro-4-(trifluoromethyl)phenyl)methyl)-D-prolinamide] it is 0.9744 µM; for `Cc1ccc(C(C)NC(=O)[C@H]2CCCN2C(=O)[C@H]2CCCN(S(=O)(=O)N3CC(C#N)C3)C2)cc1F` (stereo partly drawn) [Example 155, 1-(((3S)-1-((3-cyano-1-azetidinyl)sulfonyl)-3-piperidinyl)carbonyl)-N-(-1-(3-fluoro-4-methylphenyl)ethyl)-D-prolinamide] it is 0.272 µM.
Regarding `O=C(NCc1ccc(C(F)(F)F)cc1)[C@H]1CCCN1C(=O)[C@H]1CCCN(S(=O)(=O)N2CC(c3ccccn3)C2)C1` [Example 707, 1-(((3S)-1-((3-(2-pyridinyl)-1-azetidinyl)sulfonyl)-3-piperidinyl)carbonyl)-N-(4-(trifluoromethyl)benzyl)-D-prolinamide], the AC1.4 was 5.821 µM.
`CCS(=O)(=O)c1cccc(C(=O)N2[C@@H](C(=O)N[C@@H](c3ccc(C(F)(F)F)cc3F)C3COC3)C[C@H]3C[C@H]32)c1` [Example 128, (1R,3R,5R)-2-(3-(ethylsulfonyl)benzoyl)-N-((R)-(2-fluoro-4-(trifluoromethyl)phenyl)(3-oxetanyl)methyl)-2-azabicyclo[3.1.0]hexane-3-carboxamide] showed an AC1.4 of 0.2103 µM.
The molecule `O=C(N[C@@H](c1cc(F)c(Cl)cc1F)C1COC1)[C@H]1C[C@H]2C[C@H]2N1C(=O)c1cccc(C(F)(F)F)n1` [Example 529, (1R,3R,5R)-N-((R)-(4-chloro-2,5-difluorophenyl)(3-oxetanyl)methyl)-2-((6-(trifluoromethyl)-2-pyridinyl)carbonyl)-2-azabicyclo[3.1.0]hexane-3-carboxamide] came in with an AC1.4 of 2.4895 µM.
The figure for `NS(=O)(=O)c1cccc(C(=O)N2C[C@H]3C[C@H]3[C@@H]2C(=O)N[C@@H](c2cc(F)c(Cl)cc2F)C2CC2)c1` [Example 340, (1R,2R,5S)-N-((R)-(4-chloro-2,5-difluorophenyl)(cyclopropyl)methyl)-3-(3-sulfamoylbenzoyl)-3-azabicyclo[3.1.0]hexane-2-carboxamide] is 0.8898 µM; for `Cc1ccc(C(C)NC(=O)[C@H]2CCCN2C(=O)[C@H]2CCCN(S(=O)(=O)N3CC(C#N)C3)C2)cc1` (stereo partly drawn) [Example 452, (2R)-1-((S)-1-((3-cyanoazetidin-1-yl)sulfonyl)piperidine-3-carbonyl)-N-(1-(p-tolyl)ethyl)pyrrolidine-2-carboxamide] it is 1.8655 µM; for `CCC(NC(=O)[C@H]1CCCN1C(=O)[C@H]1CCCN(S(=O)(=O)N2CC(C#N)C2)C1)c1ccc(OC)cc1` (stereo partly drawn) [Example 625, (2R)-1-((S)-1-((3-cyanoazetidin-1-yl)sulfonyl)piperidine-3-carbonyl)-N-(1-(4-methoxyphenyl)propyl)pyrrolidine-2-carboxamide] it is 4.01 µM.
The figure for `C[C@@H](NC(=O)[C@H]1CCCN1C(=O)c1cccc(S(=O)(=O)N2CC(C#N)C2)c1)c1ccccc1` [Example 785, 1-((3-((3-cyano-1-azetidinyl)sulfonyl)phenyl)carbonyl)-N-((1R)-1-phenylethyl)-D-prolinamide] is 8.8883 µM; for `O=C(NCc1ccc(C(F)(F)F)cc1)[C@H]1CCCN1C(=O)c1cccc(S(=O)(=O)N2CCC2)c1` [Example 486, 1-(3-(l-azetidinylsulfonyl)benzoyl)-N-(4-(trifluoromethyl)benzyl)-D-prolinamide] it is 2.202 µM; for `C[C@@H]1CCN(S(=O)(=O)N2CC(C#N)C2)C[C@H]1C(=O)N1CCC[C@@H]1C(=O)NCc1ccc(C(F)(F)F)cc1` [Example 82, 1-(((3S,4R)-1-((3-cyano-1-azetidinyl)sulfonyl)-4-methyl-3-piperidinyl)carbonyl)-N-(4-(trifluoromethyl)benzyl)-D-prolinamide] it is 0.1085 µM.
To `C[C@@H](NC(=O)[C@H]1CCCN1C(=O)[C@H]1CCCN(S(=O)(=O)N2CC(C#N)C2)C1)c1ccc(F)cc1OC(F)F` [Example 698, 1-(((3S)-1-((3-cyano-1-azetidinyl)sulfonyl)-3-piperidinyl)carbonyl)-N-((1R)-1-(2-(difluoromethoxy)-4-fluorophenyl)ethyl)-D-prolinamide] belongs 5.5675 µM.
Turning to `N#CC1CN(S(=O)(=O)N2CCC[C@H](C(=O)N3CCC[C@@H]3C(=O)NCc3c(F)c(F)c(F)c(F)c3F)C2)C1` [Example 338, 1-(((3S)-1-((3-cyano-1-azetidinyl)sulfonyl)-3-piperidinyl)carbonyl)-N-(pentafluorobenzyl)-D-prolinamide], the AC1.4 worked out at 0.948 µM.
The figure for `C[C@H](C(=O)NCc1cccc(C(F)(F)F)c1)N(C)C(=O)c1cccc(S(=O)(=O)N2CC(C#N)C2)c1` [Example 455, 3-((3-cyano-1-azetidinyl)sulfonyl)-N-methyl-N-((1R)-1-methyl-2-oxo-2-((3-(trifluoromethyl)benzyl)amino)ethyl)benzamide] is 1.877 µM; for `Cc1cc(C(=O)N2[C@@H](C(=O)N[C@@H](c3cc(F)c(Cl)cc3F)C3CC3)C[C@H]3C[C@H]32)ccn1` [Example 736, (1R,3R,5R)-N-((R)-(4-chloro-2,5-difluorophenyl)(cyclopropyl)methyl)-2-((2-methyl-4-pyridinyl)carbonyl)-2-azabicyclo[3.1.0]hexane-3-carboxamide] it is 7.041 µM.
The figure for `CN(Cc1ccc(C(F)(F)F)cc1)C(=O)[C@H]1CCCN1C(=O)[C@H]1CCCN(S(=O)(=O)N2CC(C#N)C2)C1` [Example 363, 1-(((3S)-1-((3-cyano-1-azetidinyl)sulfonyl)-3-piperidinyl)carbonyl)-N-methyl-N-(4-(trifluoromethyl)benzyl)-D-prolinamide] is 1.143 µM.
Molecule `Cc1ccc(C(F)(F)F)cc1CNC(=O)[C@H]1CCCN1C(=O)[C@H]1CCCN(S(=O)(=O)N2CC(C#N)C2)C1` [Example 714, 1-(((3S)-1-((3-cyano-1-azetidinyl)sulfonyl)-3-piperidinyl)carbonyl)-N-(2-methyl-5-(trifluoromethyl)benzyl)-D-prolinamide] had an AC1.4 of 6.0545 µM.
In turn, `C[C@@H](NC(=O)[C@H]1CCCN1C(=O)c1cc(F)cc(S(=O)(=O)N2CC(C#N)C2)c1)c1ccc(C(F)(F)F)cc1` [Example 16, 1-((3-((3-cyano-1-azetidinyl)sulfonyl)-5-fluorophenyl)carbonyl)-N-((1R)-1-(4-(trifluoromethyl)phenyl)ethyl)-D-prolinamide] yielded an AC1.4 of 0.0238 µM.
`CCS(=O)(=O)c1cccc(C(=O)N2[C@@H](C(=O)N[C@@H](c3ccc(Cl)cc3)C3COC3)C[C@H]3C[C@H]32)c1` [Example 403, (1R,3R,5R)-N-((R)-(4-chlorophenyl)(3-oxetanyl)methyl)-2-(3-(ethylsulfonyl)benzoyl)-2-azabicyclo[3.1.0]hexane-3-carboxamide] gave an AC1.4 of 1.4025 µM.
To `N#CC1CN(S(=O)(=O)c2cc(F)cc(C(=O)N3CCC[C@@H]3C(=O)NCc3ccc(C(F)(F)F)cc3)c2)C1` [Example 53, 1-((3-((3-cyano-1-azetidinyl)sulfonyl)-5-fluorophenyl)carbonyl)-N-(4-(trifluoromethyl)benzyl)-D-prolinamide] belongs 0.0574 µM.
The molecule `C[C@@H](NC(=O)[C@H]1CCCN1C(=O)c1cccc(S(=O)(=O)N2CC(C#N)C2)c1)c1ccc(C(F)F)cc1F` [Example 49, 1-((3-((3-cyano-1-azetidinyl)sulfonyl)phenyl)carbonyl)-N-((1R)-1-(4-(difluoromethyl)-2-fluorophenyl)ethyl)-D-prolinamide] showed an AC1.4 of 0.05315 µM.
